Assay results reported in PubChem BioAssay AID248 (DTP/NCI, 2004).
Values joined by “and” are separate entries in the source; they are usually repeats but may differ in a detail not shown here. Equal entries are not always repeated. Toxic doses and inconclusive results are not listed. Peptide text beside a SMILES is read from it. * marks the point of attachment. Trt = c1ccc(C(c2ccccc2)(c2ccccc2)*)cc1

Test system: L1210 leukemia ip in BDF1 mice, survival T/C
Assay: NCI In Vivo Anticancer Drug Screen. Data for tumor model L1210 Leukemia (intraperitoneal) in B6D2F1 (BDF1) mice
Settings: endpoint: mean survival time, higher = longer survival
In short: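 Value reflects the ratio of survival in compound-treated mice to survival in vehicle-treated controls, with both groups carrying the same transplanted tumor.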

[1] = dose: 12.5 mg/kg/injection, schedule: Q01DX009 (ip), vehicle: Klucel (hydroxypropylcellulose) (HPC)
[2] = dose: 25.0 mg/kg/injection, schedule: Q01DX009 (ip), vehicle: Klucel (hydroxypropylcellulose) (HPC)
[3] = dose: 100.0 mg/kg/injection, schedule: Q04DX003 (ip), vehicle: saline with Tween-80
[4] = dose: 200.0 mg/kg/injection, schedule: Q04DX003 (ip), vehicle: saline with Tween-80
[5] = dose: 400.0 mg/kg/injection, schedule: Q04DX003 (ip), vehicle: saline with Tween-80
[6] = dose: 100.0 mg/kg/injection, schedule: Q01DX009 (ip), vehicle: saline
[7] = dose: 400.0 mg/kg/injection, schedule: Q01DX009 (ip), vehicle: saline
[8] = dose: 100.0 mg/kg/injection, schedule: Q04DX003 (ip), vehicle: Klucel (hydroxypropylcellulose) (HPC)
[9] = dose: 200.0 mg/kg/injection, schedule: Q04DX003 (ip), vehicle: Klucel (hydroxypropylcellulose) (HPC)
[10] = dose: 400.0 mg/kg/injection, schedule: Q04DX003 (ip), vehicle: Klucel (hydroxypropylcellulose) (HPC)
[11] = dose: 100.0 mg/kg/injection, schedule: Q04DX003 (ip), vehicle: saline
[12] = dose: 200.0 mg/kg/injection, schedule: Q01DX009 (ip), vehicle: saline
[13] = dose: 200.0 mg/kg/injection, schedule: Q04DX003 (ip), vehicle: saline
[14] = dose: 400.0 mg/kg/injection, schedule: Q04DX003 (ip), vehicle: saline
[15] = dose: 100.0 mg/kg/injection, schedule: Q04DX002 (ip), vehicle: Klucel (hydroxypropylcellulose) (HPC)
[16] = dose: 200.0 mg/kg/injection, schedule: Q04DX002 (ip), vehicle: Klucel (hydroxypropylcellulose) (HPC)
[17] = dose: 400.0 mg/kg/injection, schedule: Q04DX002 (ip), vehicle: Klucel (hydroxypropylcellulose) (HPC)
[18] = dose: 100.0 mg/kg/injection, schedule: Q01DX001 (ip), vehicle: carboxymethylcellulose (CMC)
[19] = dose: 200.0 mg/kg/injection, schedule: Q01DX001 (ip), vehicle: carboxymethylcellulose (CMC)
[20] = dose: 400.0 mg/kg/injection, schedule: Q01DX001 (ip), vehicle: carboxymethylcellulose (CMC)
[21] = dose: 100.0 mg/kg/injection, schedule: Q04DX002 (ip), vehicle: saline with Tween-80
[22] = dose: 200.0 mg/kg/injection, schedule: Q04DX002 (ip), vehicle: saline with Tween-80
[23] = dose: 400.0 mg/kg/injection, schedule: Q04DX002 (ip), vehicle: saline with Tween-80
[24] = dose: 100.0 mg/kg/injection, schedule: Q01DX001 (ip), vehicle: Klucel (hydroxypropylcellulose) (HPC)
[25] = dose: 200.0 mg/kg/injection, schedule: Q01DX001 (ip), vehicle: Klucel (hydroxypropylcellulose) (HPC)

With `CC(=O)OC1COC(NC(=O)N(CCCl)N=O)C(OC(C)=O)C1OC(C)=O` (stereo not drawn) the T/C (dose: 9.0 mg/kg/injection, schedule: Q01DX001 (ip), vehicle: saline with Tween-80) was 211 % of control, the T/C (dose: 13.0 mg/kg/injection, schedule: Q01DX001 (ip), vehicle: saline with Tween-80) was 284 % of control and the T/C (dose: 20.0 mg/kg/injection, schedule: Q01DX001 (ip), vehicle: saline with Tween-80) was 459 % of control. The T/C (dose: 30.0 mg/kg/injection, schedule: Q01DX001 (ip), vehicle: saline with Tween-80) was 294 % of control.

`COc1cc2[nH]c(C)c(CCN3CCN(c4ccccc4)CC3)c2cc1OC` was tested, and the T/C (dose: 3.12 mg/kg/injection, schedule: Q01DX009 (ip), vehicle: Klucel (hydroxypropylcellulose) (HPC)) was 104 % of control, the T/C (dose: 6.25 mg/kg/injection, schedule: Q01DX009 (ip), vehicle: Klucel (hydroxypropylcellulose) (HPC)) was 108 % of control and the T/C [1] was 96 % of control. The T/C [2] was 105 % of control, the T/C (dose: 25.0 mg/kg/injection, schedule: Q04DX003 (ip), vehicle: Klucel (hydroxypropylcellulose) (HPC)) was 106 % of control and the T/C (dose: 50.0 mg/kg/injection, schedule: Q04DX003 (ip), vehicle: Klucel (hydroxypropylcellulose) (HPC)) was 106 % of control.

`COc1ccc(NC(=O)Nc2ccc(C3=NCCCN3)cc2)cc1NC(=O)Nc1ccc(C2=NCCCN2)cc1` was tested, and the T/C (dose: 62.0 mg/kg/injection, schedule: Q01DX Z (ip), vehicle: carboxymethylcellulose (CMC)) was 115 % of control, the T/C (dose: 62.0 mg/kg/injection, schedule: Q01DX Z (oral), vehicle: carboxymethylcellulose (CMC)) was 104 % of control and the T/C (dose: 125.0 mg/kg/injection, schedule: Q01DX Z (oral), vehicle: carboxymethylcellulose (CMC)) was 98 % of control. For the same compound, the T/C (dose: 250.0 mg/kg/injection, schedule: Q01DX Z (ip), vehicle: carboxymethylcellulose (CMC)) was 150 % of control, the T/C (dose: 250.0 mg/kg/injection, schedule: Q01DX Z (oral), vehicle: carboxymethylcellulose (CMC)) was 104 % of control and the T/C (dose: 500.0 mg/kg/injection, schedule: Q01DX Z (oral), vehicle: carboxymethylcellulose (CMC)) was 100 % of control.

For `O=C(Cl)c1cccc2c1sc1ccccc12`, the T/C (dose: 100.0 mg/kg/injection, schedule: Q01DX009 (ip), vehicle: saline with Tween-80) was 102 % of control, the T/C [3] was 97 % of control and the T/C (dose: 200.0 mg/kg/injection, schedule: Q01DX009 (ip), vehicle: saline with Tween-80) was 102 % of control. The T/C [4] was 98 % of control, the T/C (dose: 400.0 mg/kg/injection, schedule: Q01DX009 (ip), vehicle: saline with Tween-80) was 100 % of control and the T/C [5] was 98 % of control.

With `COC(=O)C(NC(=O)C(N)CSC(c1ccccc1)(c1ccccc1)c1ccccc1)C(C)C` (stereo not drawn) (H-Cys(Trt)-Val-OMe; configuration not given here) the T/C (dose: 50.0 mg/kg/injection, schedule: Q01DX009 (ip), vehicle: saline) was 104 % of control and 118 % of control, the T/C [6] was 109 % of control and the T/C [7] was 104 % of control.

`O=C(O)CCC1C2CC(C1C(=O)O)C1C3CCC(C3)C21` (stereo not drawn) was tested, and the T/C [8] was 100 % of control, the T/C [9] was 95 % of control and the T/C [10] was 95 % of control.

For `ClCc1ccc(CCl)c2ccccc12`, the T/C [8] was 104 % of control, the T/C [9] was 105 % of control and the T/C [10] was 100 % of control.

`CC1(C)CC(N=Cc2ccccc2O)CC(C)(C)N1O` was tested, and the T/C [3] was 94 % of control, the T/C [4] was 97 % of control and the T/C [5] was 100 % of control.

With `C=C(NC(=O)COc1ccccc1)C(=O)O` the T/C [6] was 103 % of control, the T/C [11] was 116 % of control and the T/C [12] was 90 % of control. The T/C [13] was 97 % of control and the T/C [14] was 100 % of control.

`Cc1cc(=O)[nH]c(NCC(=O)O)n1` was tested, and the T/C (dose: 50.0 mg/kg/injection, schedule: Q04DX002 (ip), vehicle: saline) was 101 % of control, the T/C (dose: 100.0 mg/kg/injection, schedule: Q04DX002 (ip), vehicle: saline) was 101 % of control and the T/C (dose: 200.0 mg/kg/injection, schedule: Q04DX002 (ip), vehicle: saline) was 101 % of control.

In the case of `COC(=O)C1ON(C(=O)c2ccccc2)C(C)C(O)C1OC=O` (stereo not drawn), the T/C [15] is reported as 95 % of control, the T/C [16] is reported as 95 % of control and the T/C [17] is reported as 103 % of control.

In the case of `CSCCNC(=O)CS(=O)(=O)c1ccc(N)cc1`, the T/C [3] is reported as 97 % of control, the T/C [4] is reported as 97 % of control and the T/C [5] is reported as 97 % of control.

`COC1OCC(OS(C)(=O)=O)C(NC(C)=O)C1OS(C)(=O)=O` (stereo not drawn) was tested, and the T/C [18] was 104 % of control, the T/C (dose: 177.0 mg/kg/injection, schedule: Q01DX001 (ip), vehicle: carboxymethylcellulose (CMC)) was 100 % of control and the T/C [19] was 98 % of control. For the same compound, the T/C (dose: 266.0 mg/kg/injection, schedule: Q01DX001 (ip), vehicle: carboxymethylcellulose (CMC)) was 94 % of control and 108 % of control, the T/C [20] was 94 % of control and 103 % of control and the T/C (dose: 600.0 mg/kg/injection, schedule: Q01DX001 (ip), vehicle: carboxymethylcellulose (CMC)) was 97 % of control.

With `[CH3][Sn]([CH3])([Br])[CH2]CCBr` the T/C (dose: 0.78 mg/kg/injection, schedule: Q01DX009 (ip), vehicle: saline) was 100 % of control and the T/C (dose: 1.56 mg/kg/injection, schedule: Q01DX009 (ip), vehicle: saline) was 100 % of control.

With `NC(=O)c1cc(I)cc(I)c1N` the T/C (dose: 100.0 mg/kg/injection, schedule: Q01DX001 (ip), vehicle: saline with Tween-80) was 95 % of control, the T/C (dose: 200.0 mg/kg/injection, schedule: Q01DX001 (ip), vehicle: saline with Tween-80) was 97 % of control and the T/C (dose: 400.0 mg/kg/injection, schedule: Q01DX001 (ip), vehicle: saline with Tween-80) was 98 % of control.

`CON(C)CCOC(=O)c1ccc(N)cc1` was tested, and the T/C (dose: 50.0 mg/kg/injection, schedule: Q04DX002 (ip), vehicle: saline with Tween-80) was 104 % of control, the T/C [21] was 107 % of control and the T/C [3] was 89 % of control. The T/C [22] was 104 % of control, the T/C [4] was 95 % of control and the T/C [23] was 104 % of control. For the same compound, the T/C [5] was 99 % of control.

`CC1=C(Br)C(=O)C(c2c(C)c(Br)c(C)c([N+](=O)[O-])c2C)=C(Br)C1=O` was tested, and the T/C [24] was 98 % of control, the T/C [8] was 102 % of control and the T/C [25] was 93 % of control. The T/C [9] was 102 % of control, the T/C (dose: 400.0 mg/kg/injection, schedule: Q01DX001 (ip), vehicle: Klucel (hydroxypropylcellulose) (HPC)) was 106 % of control and the T/C [10] was 91 % of control.

`COc1ccc(N=C(CCl)Nc2ccc(OC)cc2)cc1` was tested, and the T/C [15] was 94 % of control, the T/C [16] was 88 % of control and the T/C [17] was 109 % of control.

With `Cc1ccc(SP(=O)(Sc2ccc(C)cc2)Sc2ccc(C)cc2)cc1` the T/C [21] was 97 % of control, the T/C [22] was 97 % of control and the T/C [23] was 97 % of control.

In the case of `CN(C)C(=O)Nc1cccc(OC(=O)NCCCl)c1`, the T/C [3] is reported as 96 % of control, the T/C [4] is reported as 94 % of control and the T/C [5] is reported as 94 % of control.

`CC(C)Oc1ccc2c(c1)N(CCC1CCCCN1)c1ccccc1S2` (stereo not drawn) was tested, and the T/C [1] was 101 % of control and the T/C [2] was 103 % of control.

With `COc1ccc(/C=C2/COC/C(=C/c3ccc(OC)c(OC)c3)C2=O)cc1OC` the T/C [6] was 98 % of control, the T/C [11] was 101 % of control and the T/C [12] was 93 % of control. For the same compound, the T/C [13] was 95 % of control, the T/C [7] was 90 % of control and the T/C [14] was 93 % of control.

With `O=C1NC(=O)C(Nc2ccccc2)(c2ccccc2)N1` (stereo not drawn) the T/C [24] was 90 % of control and the T/C [25] was 95 % of control.

With `O=S(c1ccccc1)N(OCc1ccccc1)S(=O)c1ccccc1` (stereo not drawn) the T/C (dose: 25.0 mg/kg/injection, schedule: Q04DX002 (ip), vehicle: Klucel (hydroxypropylcellulose) (HPC)) was 98 % of control, the T/C (dose: 50.0 mg/kg/injection, schedule: Q04DX002 (ip), vehicle: Klucel (hydroxypropylcellulose) (HPC)) was 104 % of control and the T/C [15] was 95 % of control.

In the case of `C/C=C\CCCCCCC`, the T/C (dose: 50.0 mg/kg/injection, schedule: Q01DX001 (ip), vehicle: carboxymethylcellulose (CMC)) is reported as 90 % of control, the T/C [18] is reported as 90 % of control and the T/C [19] is reported as 95 % of control. The T/C [20] was 90 % of control.
